Test results from PubChem BioAssay (NCI).
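All cell lines were grown in 96-well plates and treated with compound for 48 hours. At the GI50, growth is halved. Definition used: TGI = concentration required for complete inhibition of growth.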

Tests used:
Assay in all cases: growth of human tumour cells (NCI), 48 h
[1] = tested on: M14 melanoma
[2] = tested on: HL-60(TB) leukemia
[3] = tested on: DLD-1 colon
[4] = tested on: MALME-3M melanoma
[5] = tested on: ACHN renal
[6] = tested on: HT29 colon
[7] = tested on: UO-31 renal
[8] = tested on: HCC-2998 colon
[9] = tested on: SF-295 CNS
[10] = tested on: SK-OV-3 ovarian
[11] = tested on: KM20L2 colon
[12] = tested on: TK-10 renal
[13] = tested on: HCT-15 colon
[14] = tested on: K-562 leukemia
[15] = tested on: OVCAR-3 ovarian
[16] = tested on: OVCAR-5 ovarian
[17] = tested on: SF-539 CNS
[18] = tested on: NCI-H226 lung
[19] = tested on: NCI-H522 lung
[20] = tested on: DMS 114 small cell lung
[21] = tested on: MOLT-4 leukemia
[22] = tested on: HCT-116 colon
[23] = tested on: SNB-75 CNS
[24] = tested on: CCRF-CEM leukemia
[25] = tested on: A549 NSCLC
[26] = tested on: U251 CNS
[27] = tested on: SNB-19 CNS
[28] = tested on: LXFL 529 NSCLC
[29] = tested on: M19-MEL melanoma
[30] = tested on: UACC-62 melanoma
[31] = tested on: NCI-H460 lung
[32] = tested on: NCI-H23 lung
[33] = tested on: COLO 205 colon
[34] = tested on: A498 renal
[35] = tested on: SK-MEL-2 melanoma
[36] = tested on: SNB-78 CNS
[37] = tested on: LOX IMVI melanoma
[38] = tested on: RXF 393 renal
[39] = tested on: SK-MEL-5 melanoma
[40] = tested on: RPMI-8226 leukemia
[41] = tested on: IGROV1 ovarian
[42] = tested on: OVCAR-8 ovarian
[43] = tested on: HOP-62 NSCLC
[44] = tested on: SN12C renal
[45] = tested on: SK-MEL-28 melanoma
[46] = tested on: UACC-257 melanoma
[47] = tested on: SW-620 colon
[48] = tested on: EKVX NSCLC
[49] = tested on: SR leukemia
[50] = tested on: HOP-92 NSCLC
[51] = tested on: CAKI-1 renal
[52] = tested on: 786-0 renal
[53] = tested on: DMS 273 small cell lung
[54] = tested on: OVCAR-4 ovarian
[55] = tested on: KM12 colon

SMILES: CCC[CH2][Sn]1([CH2]CCC)[O]CC(CN2CCCC2)[O]1 (stereo not given)
- GI50 [1]: 16.9 µM
- TGI [1]: 32.5 µM
- GI50 [2]: 3.87 µM
- TGI [2]: 15.2 µM
- GI50 [3]: 16.1 µM
- TGI [3]: 32.7 µM
- GI50 [4]: 4.59 µM
- TGI [4]: 17.4 µM
- GI50 [5]: 17.3 µM
- TGI [5]: 31.4 µM
- GI50 [6]: 11.1 µM
- TGI [6]: 30.7 µM
- GI50 [7]: 17 µM
- TGI [7]: 31.3 µM
- GI50 [8]: 14.3 µM
- TGI [8]: 28.5 µM
- GI50 [9]: 14.5 µM
- TGI [9]: 28.2 µM
- GI50 [10]: 37 µM
- TGI [10]: > 100 µM
- GI50 [11]: 20.6 µM
- TGI [11]: 52 µM
- GI50 [12]: 12 µM
- TGI [12]: 24.3 µM
- GI50 [13]: 15.3 µM
- TGI [13]: 29.2 µM
- GI50 [14]: 4.24 µM
- TGI [14]: 21.4 µM
- GI50 [15]: 13 µM
- TGI [15]: 25.7 µM
- GI50 [16]: 12.9 µM
- TGI [16]: 27.7 µM
- GI50 [17]: 16.9 µM
- TGI [17]: 38.9 µM
- GI50 [18]: 21.9 µM
- TGI [18]: 64.1 µM
- GI50 [19]: 3.32 µM
- TGI [19]: 11.1 µM
- GI50 [20]: 13 µM
- TGI [20]: 27 µM
- GI50 [21]: 14.3 µM
- TGI [21]: 50.4 µM
- GI50 [22]: 16.9 µM
- TGI [22]: 30.6 µM
- GI50 [23]: 14.4 µM
- TGI [23]: 40.9 µM
- GI50 [24]: 3.33 µM
- TGI [24]: 21.3 µM
- GI50 [25]: 47.2 µM
- TGI [25]: > 100 µM
- GI50 [26]: 15.3 µM
- TGI [26]: 29.1 µM
- GI50 [27]: 18.7 µM
- TGI [27]: 44.3 µM
- GI50 [28]: 4.33 µM
- TGI [28]: 15.3 µM
- GI50 [29]: 14.6 µM
- TGI [29]: 29.4 µM
- GI50 [30]: 13.6 µM
- TGI [30]: 30.5 µM
- GI50 [31]: 34.6 µM
- TGI [31]: > 100 µM
- GI50 [32]: 11.6 µM
- TGI [32]: 27.7 µM
- GI50 [33]: 18.3 µM
- TGI [33]: 34.3 µM
- GI50 [34]: 28.5 µM
- TGI [34]: 46.9 µM
- GI50 [35]: 13.8 µM
- TGI [35]: 27.1 µM
- GI50 [36]: 11.4 µM
- TGI [36]: 37.4 µM
- GI50 [37]: 12.3 µM
- TGI [37]: 26.8 µM
- GI50 [38]: 22.4 µM
- TGI [38]: 37.8 µM
- GI50 [39]: 17.9 µM
- TGI [39]: 33.4 µM
- GI50 [40]: 7.44 µM
- TGI [40]: 44.1 µM
- GI50 [41]: 21.1 µM
- TGI [41]: 37.1 µM
- GI50 [42]: 14.1 µM
- TGI [42]: 29.4 µM
- GI50 [43]: 34.1 µM
- TGI [43]: 73.8 µM
- GI50 [44]: 16.7 µM
- TGI [44]: 31 µM
- GI50 [45]: 19 µM
- TGI [45]: 34.9 µM
- GI50 [46]: 14.3 µM
- TGI [46]: 29.7 µM
- GI50 [47]: 11.5 µM
- TGI [47]: 27.6 µM
- GI50 [48]: 12.9 µM
- TGI [48]: 33.2 µM
- GI50 [49]: 10.4 µM
- TGI [49]: 39.5 µM
- GI50 [50]: 8.45 µM
- TGI [50]: 23.8 µM
- GI50 [51]: 5.6 µM
- TGI [51]: 24.5 µM
- GI50 [52]: 14.4 µM
- TGI [52]: 28.2 µM
- GI50 [53]: 16.3 µM
- TGI [53]: 30.8 µM
- GI50 [54]: 14.4 µM
- TGI [54]: 28.5 µM
- GI50 [55]: 16.1 µM
- TGI [55]: 36.4 µM
